# Results taken from patent publication US20050221475A1, “Cell culture procedures for inducing a neuronal phenotype in insect cells” (priority 2004, published 2005).
# Assays:
# [1] = tested on: continuous cell lines of the Beet Armyworm, Spodoptera exigua; settings: cell proliferation assay; cited from earlier work
# [2] = tested on: Aedes aegypti established cell line; settings: 2 days exposure to 3×10^−7 M; cited from earlier work
# Sf21 cells [3] = assay: Sf21 cell culture: morphology and count of cells displaying processes (transformants); type: cell-based, Spodoptera frugiperda
# Drosophila Kc-H line = settings: cited from earlier work
# Sf21 cells [4] = type: cell-based, Spodoptera frugiperda
# [5] = tested on: acetylcholinesterase (ACHE); settings: 10^−6 M; cited from earlier work
compound,measurement,setting,value
Cc1c(COC(=O)[C@@H]2[C@H](/C=C(\Cl)C(F)(F)F)C2(C)C)cccc1-c1ccccc1 (racemic) [bifenthrin],activity in undifferentiated cells,[1],low activity
CC(C)(O)CC[C@@H](O)[C@](C)(O)[C@H]1CC[C@@]2(O)C3=CC(=O)[C@@H]4C[C@@H](O)[C@@H](O)C[C@]4(C)[C@H]3CC[C@]12C [20-hydroxyecdysone],stimulation of AChE activity,[2],2 fold
same,increase in the number of cells showing one or more processes,"Sf21 cells [3]; 20 μg/ml, counted 2 days after treatment, vs control, n=8",~30 fold
same,effect on cell morphology,"Sf21 cells [3]; TNM-FH medium supplemented with 10 μg/ml, 48 hours after passage (FIG. 2)","numerous cells assume the appearance of monopolar neurons, with prominent axon-like structures"
same,concentration at which cells extend long processes and acquire acetylcholinesterase activity,Drosophila Kc-H line,greater than or equal to 10^−8 molar
"NC1=N[C@H](O)[C@H]2[C@H]3O[C@]4(O)O[C@@H]([C@@H](O)[C@@]2(N1)[C@@H]4O)[C@]3(O)CO [TTX, tetrodotoxin]",effect on veratridine-induced increase in transformants,Sf21 cells [4],blocked
CNC(=O)Oc1ccc2c(c1)[C@]1(C)CCN(C)[C@@H]1N2C.CNC(=O)Oc1ccc2c(c1)[C@]1(C)CCN(C)[C@@H]1N2C.O=S(=O)(O)O [serine sulfate],effect on enzyme (AChE),[5],blocked
COc1ccc(C(=O)O[C@H]2CC[C@@]3(C)[C@@H]4CC[C@H]5[C@]6(O)C[C@H](O)[C@@]7(O)[C@@H](CN8C[C@@H](C)CC[C@H]8[C@@]7(C)O)[C@]6(O)C[C@@]53O[C@]24O)cc1OC [veratridine],increase in the number of transformants,Sf21 cells [4],~3 fold
nerve growth factor: nerve growth factor (NGF),effect on cell morphology,"Sf21 cells [3]; 20 μg/ml NGF, 48 hours after passage (FIG. 5)",does not induce any similar morphological changes
